Source: patent publication US20150094321A1, “COMBINATION” (GlaxoSmithKline LLC, priority 2009, published 2015)
Where two headings read alike, the source gives them in different places.

Experiments:
Experiment in all cases: Cell growth inhibition assay
BT-474-J4 = type: cell-based, human; conditions: BT-474-J4, breast, HER2+, PIK3CA K111N, single agent, read-out: IC50 Single Agent (mean +/- std)
Description: (§1) Human breast tumor lines. BT-474, HCC1419, HCC1937, HCC1954, HCC202, KPL-1, MDA-MB-157, MDA-MB-175-VII, MDA-MB-361, MDA-MB-453, SK-BR-3, SUM225PE, UACC893, and ZR-75-1; lung tumor line, CALU-3; and melanoma line, CHL-1, were from ATCC. Human breast tumor line JIMT-1 was from European Collection of Cell Cultures (UK). Human breast tumor lines SUM149PT, SUM190PT and SUM52PE were from Asterand. These lines were cultured in RPMI 1640 medium containing 10% fetal bovine serum (FBS). A head and neck tumor line, LICR LON HN5 (HN5), a gift from the Institute of Cancer Research, Surrey, U.K, was cultured in Dulbecco's modified Eagle medium (DMEM) containing 5% FBS; KPL-4 breast tumor cell line was kindly provided by Dr Junichi Kurebayashi (Kawasaki Medical School, Okayama, Japan) and cultured in DMEM containing 5% FBS. JIMT-1 is a line derived from a patient clinically resistant to trastuzumab (Herceptin®). BT-474-J4 is a single cell clone derived from a pool of BT-474 cells that were selected to grow in lapatinib to a concentration of 3 μM.
(§2) All cells were cultured for a minimum of 72 hours prior to cell plating. Cells were assayed in a 96-well tissue culture plate (NUNC 136102) of RPMI medium containing 10% FBS for all cells at 2,000 cells per well except KPL-4 and HN5 which were plated in DMEM containing 5% FBS at 500 cells per well. Approximately 24 hours after plating, cells were exposed to ten, two-fold or three-fold serial dilutions of compound or the combination of the two agents at a constant molar to molar ratio of 1:1 Compound A to Compound B in RPMI media containing 10% FBS or DMEM containing 5% FBS. Cells were incubated in the presence of compounds for 3 days. ATP levels were determined by adding Cell Titer Glo® (Promega) according to the manufacturer's protocol. Briefly, Cell Titer Glo® was added each plate, incubated for 20 minutes then luminescent signal was read on the SpectraMax L plate reader with a 0.5 sec integration time.
(§3) Inhibition of cell growth was estimated after treatment with compound or combination of compounds for three days and comparing the signal to cells treated with vehicle (DMSO). Cell growth was calculated relative to vehicle (DMSO) treated control wells. Concentration of compound that inhibits 50% of control cell growth (IC50) was interpolated using nonlinear regression with the equation, y=(A+(B−A)/(1+(C/x)̂D))), where A is the minimum response (ymin), B is the maximum response (ymax), C is the inflection point of the curve (EC50) and D is the Hill coefficient. […]

JIMT-1 = type: cell-based, human; conditions: for IC50: Homo sapiens, JimT-1, breast, HER2+, PIK3CA C420R, single agent, read-out: IC50 Single Agent (mean +/- std); for sensitivity as single agents: JIMT-1
Description: as §1, §2, §3

SUM225PE = type: cell-based, human; conditions: breast, HER2+, WT, single agent, read-out: IC50 Single Agent (mean +/- std)
Description: as §1, §2, §3

HCC1937 = type: cell-based; conditions: Homo sapiens; HCC1937, breast, PTEN low; single agent; read-out: IC50 Single Agent (mean +/- std)
Description: as §1, §2, §3

HCC1419 = type: cell-based; conditions: Homo sapiens; HCC1419, breast, HER2+, WT; single agent; read-out: IC50 Single Agent (mean +/- std)
Description: as §1, §2, §3

MDA-MB-157 = type: cell-based; conditions: Homo sapiens; MDA-MB-157, breast, WT; single agent; read-out: IC50 Single Agent (mean +/- std)
Description: as §1, §2, §3

KPL-1 = type: cell-based; conditions: Homo sapiens; KPL-1, breast, PIK3CA E545K; single agent; read-out: IC50 Single Agent (mean +/- std)
Description: as §1, §2, §3

SK-BR-3 = type: cell-based; conditions: Homo sapiens; SK-BR-3, breast, HER2+, WT; single agent; read-out: IC50 Single Agent (mean +/- std)
Description: as §1, §2, §3

BT-474 = type: cell-based; conditions: Homo sapiens; BT-474, breast, HER2+, PIK3CA K111N; single agent; read-out: IC50 Single Agent (mean +/- std)
Description: as §1, §2, §3

HCC202 = type: cell-based; conditions: Homo sapiens; HCC202, breast, HER2+, PIK3CA E545K; single agent; read-out: IC50 Single Agent (mean +/- std)
Description: as §1, §2, §3

CC(=O)Nc1cccc(-n2c(=O)n(C3CC3)c(=O)c3c(Nc4ccc(I)cc4F)n(C)c(=O)c(C)c32)c1 [Compound A, N-{3-[3-cyclopropyl-5-(2-fluoro-4-iodo-phenylamino)-6,8-dimethyl-2,4,7-trioxo-3,4,6,7-tetrahydro-2H-pyrido[4,3-d]pyrimidin-1-yl]phenyl}acetamide]
not sensitive: sensitivity as single agents (JIMT-1)
> 1000 nM: IC50 (BT-474-J4; Homo sapiens) | IC50 (JIMT-1) | IC50 (SUM225PE; Homo sapiens) | IC50 (HCC1937) | IC50 (HCC1419) | IC50 (MDA-MB-157) | IC50 (KPL-1) | IC50 (SK-BR-3) | IC50 (BT-474) | IC50 (HCC202)

Cn1ncc(Cl)c1-c1cc(C(=O)N[C@H](CN)Cc2ccc(F)c(F)c2)oc1Cl [Compound B, N-{(1S)-2-amino-1-[(3,4-difluorophenyl)methyl]ethyl}-5-chloro-4-(4-chloro-1-methyl-1H-pyrazol-5-yl)-2-furancarboxamide]
271 nM: IC50 (BT-474-J4; Homo sapiens)
529 nM: IC50 (SUM225PE)
217 nM: IC50 (BT-474-J4)
< 1000 nM: IC50 (SUM225PE; Homo sapiens)
> 1000 nM: IC50 (JIMT-1) | IC50 (HCC1937) | IC50 (HCC1419) | IC50 (MDA-MB-157) | IC50 (KPL-1) | IC50 (SK-BR-3) | IC50 (BT-474) | IC50 (HCC202)
not sensitive: sensitivity as single agents (JIMT-1)
